Results from patent US20080274121A1, “Inhibition of Angiogenesis by Mithramycin” (priority 2007, published 2008).

Assays:
BON-1 cells = test: BON-1 carcinoid subcutaneous xenograft
Protocol: H727 and BON-1 cells were injected into the subcutis of nude mice (n=5). When tumors reached around 4 mm in diameter, the animals received different doses of MIT (0.10 [M-10], 0.20 [M-20], and 0.40 [M-40] mg/kg) via intraperitoneal injection twice a week. Tumors were measured once every week, and at each measurement, the mean±standard deviation (SD) tumor volume in the five mice in each group was calculated (A).
H727 and BON-1 cells were injected subcutaneously into nude mice. […] A. Tumors were measured once every week, and at each measurement, the mean±SD tumor volume in the five mice in each group was calculated. B. Mouse body weights were measured. The asterisks indicate the statistical significance (P<0.01) in a comparison between the treated and respective control groups.
Mithramycin-A (MIT, 1 mg/vial crystal powder; lot 055K4011) was purchased from Sigma Chemical Co. (St. Louis, Mo.) and diluted in sterile water. BVZ (25 mg/ml; NDC 50242-060-01) from Genentech, Inc. (South San Francisco, Calif.) was purchased. For animal experiments, MIT (0.1 to 0.4 mg/kg body weight) and BVZ (25 to 100 μg/mouse) were administered by intraperitoneal or subcutaneous injections twice a week or as otherwise stated.
Female athymic BALB/c nude mice were purchased from The Jackson Laboratory (Bar Harbor, Me.). The mice were housed in laminar flow cabinets under specific pathogen-free conditions and used when they were 8 weeks old.
H727 and BON-1 tumor cells were injected into the subcutis of mice as described in the Materials and Methods. […] Moreover, the residual tumors were harvested and angiogenesis was assessed by CD31 staining.
Synergistic antitumor effects of BVZ and MIT in human LGNET model. […] To test this hypothesis, we determined whether modulating Sp1 expression and/or activity impacts the efficacy of anti-angiogenic treatment of BVZ. […]
H727 and BON-1 cells were injected subcutaneously into nude mice and then administered treatment to them as described in FIG. 20. We monitored animal survival daily until termination of the experiment 160 days after tumor-cell injection.

[1] = tested on: Sp1, EGFR, and VEGF protein expression; test: Western blot of gene expression in PANC-1 cells in vitro; format: cell-based, human; conditions: 100 μg/ml BVZ, 6 to 48 hours
Protocol: FIG. 14. Effects of treatment with BVZ and MIT on the growth of and gene expression in human pancreatic cancer cells in vitro. (A) BxPC3 and (B) PANC-1 cells were incubated for 1 to 5 days in a medium alone or a medium containing 100 μg/ml BVZ. The viable cells were counted every 24 hours. C, PANC-1 cells were incubated for 6 to 48 hours in a medium alone or a medium containing 100 μg/ml BVZ. Total protein lysates were harvested from the cell cultures, and the level of Sp1, EGFR, and VEGF protein expression was determined using Western blot analysis. Equal protein-sample loading was monitored by probing the same membrane filter with an anti-glyceraldehyde-3-phosphate dehydrogenase antibody (GAPDH). […] (D) Cytotoxicity was assessed using the MTT assay, and (E) the level of gene expression was determined using Western blot analysis. NS, nonspecific.
Western blot analysis. Whole-cell lysates were prepared from human pancreatic cancer cell lines and tissues (23). […] Equal protein-sample loading was monitored by probing the same membrane filter with antibodies against anti-β-actin or glyceraldehyde-3-phosphate dehydrogenase (GAPDH) (23). The probe proteins were detected using the Amersham enhanced chemiluminescence system according to the manufacturer's instructions. […]

[2] = tested on: Sp1 recruitment into the Sp1 promoter; test: ChIP assay, tumors formed by PANC-1 cells in nude mice; format: in vivo; conditions: tumors from treated mice (BVZ, MIT, B+M)
Protocol: FIG. 15. Effects of treatment with BVZ and MIT on Sp1 recruitment into the Sp1 promoter in human pancreatic cancer cells in vitro and in vivo. A, schematic structures of the minimal Sp1 promoters. The nucleotide positions and sequences of Sp1-binding sites and polymerase chain reaction forward and reverse primers flanking those sites for ChIP assay are shown. B, Sp1 and VEGF promoter reporter constructs were transfected into PANC-1 cells in triplicate and incubated for 12 hours. The cells were then incubated for another 24 hours in a medium alone or a medium containing 100 μg/ml BVZ or 0.1 μM MIT. Total protein lysates were harvested from the cell cultures for measurement of Sp1 and VEGF promoter activity using a luciferase assay kit. The relative Sp1 and VEGF promoter activities were assessed, and the activity in treated groups was expressed as the fold change of that in their respective control groups. C and D, chromatin was extracted from (C) PANC-1 cells that were incubated in vitro for 2 days in a medium alone or a medium containing 100 μg/ml BVZ or 0.1 μM MIT and (D) tumors formed by PANC-1 cells in nude mice that received treatment as described in FIG. 2A. […]

PANC-1 cells = test: Viable cell count in vitro, PANC-1; format: cell-based, human; conditions: 100 μg/ml BVZ
Protocol: FIG. 14. Effects of treatment with BVZ and MIT on the growth of and gene expression in human pancreatic cancer cells in vitro. (A) BxPC3 and (B) PANC-1 cells were incubated for 1 to 5 days in a medium alone or a medium containing 100 μg/ml BVZ. The viable cells were counted every 24 hours. C, PANC-1 cells were incubated for 6 to 48 hours in a medium alone or a medium containing 100 μg/ml BVZ. Total protein lysates were harvested from the cell cultures, and the level of Sp1, EGFR, and VEGF protein expression was determined using Western blot analysis. Equal protein-sample loading was monitored by probing the same membrane filter with an anti-glyceraldehyde-3-phosphate dehydrogenase antibody (GAPDH). D and E, PANC-1 cells were treated with MIT at concentrations ranging from 0.1 to 1.2 μM for 24 and 48 hours. (D) Cytotoxicity was assessed using the MTT assay, and (E) the level of gene expression was determined using Western blot analysis. NS, nonspecific.
Effects of treatment with BVZ and MIT on the growth of and gene expression in human pancreatic cancer cells. To further determine whether treatment with BVZ directly impacts gene expression in pancreatic cancer cells, we incubated PANC-1 and BxPC3 cells in a medium alone or a medium containing 100 μg/ml BVZ for 6 to 48 hours.

Question: What does the source list for bevacizumab [BVZ]?
Answer: antitumor activity at low dose (BON-1 cells; BVZ 25 μg, MIT 0.10 mg/kg, alone or combined, i.p. twice a week): marginal antitumor activity; body weight (BON-1 cells; BVZ alone): no discernable effects on body weight; animal survival (BON-1 cells; compared with PBS, 160 days): slightly increased survival rate; expression of Sp1, VEGF and EGFR [1]: did not affect the expression of Sp1 or its major downstream molecules; Sp1 recruitment to its own promoter [2]: significantly increase Sp1 recruitment to its own promoter; cell growth in vitro (PANC-1 cells): did not affect the growth
